Source: patent US8927563B2, “Kinase inhibitor” (Respivert Limited, priority 2013, dated 2015)

Experiments:
[1] = tested on: adoptive transfer colitis; experiment: Adoptive transfer mouse model; format: in vivo, mice
Method: On Study day 0, female Balb/C mice are terminated and spleens obtained for CD45RB^high cell isolation (Using SCID IBD cell Separation protocol). Approximately 4×10^5 cells/mL CD45RB^high cells are then injected intraperitoneally (100 μL/mouse) into female SCID animals. On study day 14, mice are weighed and randomized into treatment groups based on body weight. On Day 14, the compound is administered BID, via oral gavage, in a vehicle comprising a defined mixture of corn oil (32.5%), transcutol (20%), maisine (12.5%) and cremophor ELP (35%) at the dose levels outlined below in Tables 6a and 6b and a dose volume of 5 mL/kg. Treatment continues until study day 42, at which point the animals are necropsied 4 hours after the morning administration. The colon length and weight are recorded and used as a secondary endpoint in the study as a measurement of colon oedema. The colon is then divided into six cross-sections, four of which are used for histopathology scoring (primary endpoint) and two are homogenised for cytokine analysis. Data shown is the % inhibition of the induction window between naïve animals and vehicle animals, where higher inhibition implies closer to the non-diseased, naïve, phenotype.

Lck = Lck (Homo sapiens (Human), UniProt P06239); experiment: KINOMEscan dissociation constant, Lck; format: binding
Method: (§1) Kinase enzyme binding activities of compounds disclosed herein may be determined using a proprietary assay which measures active site-directed competition binding to an immobilized ligand (Fabian, M. A. et al., Nature Biotechnol., 2005, 23:329-336). These assays may be conducted by DiscoverX (formerly Ambit; San Diego, Calif.). The percentage inhibition produced by incubation with a test compound may be calculated relative to the non-inhibited control.

Syk = Syk (Homo sapiens (Human), UniProt P43405); experiment: KINOMEscan dissociation constant, Syk; format: binding
Method: as §1

non-mutant kinases = experiment: KinomeScan selectivity scores; format: binding
Method: as §1

hERG = hERG (Homo sapiens (Human), UniProt Q12809); experiment: hERG inhibition, IonWorks patch clamp electrophysiology; format: cell-based; conditions: human, 3 μM
Method: (§2) Compound I was tested for inhibition of the human ether a go-go (hERG) channel using IonWorks™ patch clamp electrophysiology at Essen Bioscience (Welwyn Garden City, England).

[2] = biological target: human ether a go-go (hERG) channel (Homo sapiens (Human), UniProt Q12809); experiment: as above; format: cell-based
Method: as §2

d-U937 cells = experiment: Accumulation of β catenin in d-U937 cells; format: cell-based, human; conditions: normalised to Reference compound at 1 μg/mL
Method: U937 cells, a human monocytic cell line, are differentiated into macrophage-type cells by incubation with PMA (100 ng/mL) for between 48 to 72 hr. The cells are then incubated with either final concentrations of test compound or vehicle for 18 hr. The induction of β-catenin by the test compound is stopped by replacing the media with 4% formaldehyde solution. Endogenous […] is neutralised by incubating with quenching buffer (100 μL, 0.1% sodium azide, 1% H2O2 in PBS with 0.05% Tween-20) for 20 min. The cells are washed with washing buffer (200 μL; PBS containing 0.05% Tween-20) and incubated with blocking solution (200 μL; 5% milk in PBS) for 1 hr, re-washed with washing buffer (200 μL) and then incubated overnight with anti-β-catenin antibody solution (50 μL) in 1% BSA/PBS (BD, Oxford, UK).
After washing with washing buffer (3×200 μL; PBS containing 0.05% Tween-20), cells are incubated with a HRP-conjugated secondary antibody solution (100 μL) in 1% BSA/PBS (Dako, Cambridge, UK) and the resultant signal is determined colourimetrically (OD: 450 nm with a reference wavelength of 655 nm) using TMB substrate (50 μL; R&D Systems, Abingdon, UK). This reaction is stopped by addition of 1N H2SO4 solution (50 μL). Cells are then washed with washing buffer and 2% crystal violet solution (50 μL) is applied for 30 min. After washing with washing buffer (3×200 μL), 1% SDS (100 μL) is added to each well and the plates are shaken lightly for 1 hr prior to measuring the absorbance at 595 nm (Varioskan® Flash, Thermo-Fisher Scientific).
The measured OD450-655 readings are corrected for cell number by dividing the OD450-655 by the OD595 readings.

B-Raf = B-Raf (Homo sapiens (Human), UniProt P15056); experiment: KINOMEscan binding of B-Raf to standard ligand
Method: as §1

[3] = tested on: rat, Cynomolgus macaque or human hepatocytes; experiment: Analysis of metabolites in hepatocyte incubations; format: in vitro ADME; conditions: 10 μM, 0, 60 and 90 minutes
Method: Studies were conducted by BioFocus (Saffron Walden, UK) to determine the metabolic fate of Compound I following incubation with rat, Cynomolgus macaque or human hepatocytes.
Separate incubations (n=3) of Compound I (10 μM initial concentration) or DMSO control, were performed with cryopreserved hepatocytes from each species (0.5 million cell/mL) at 37° C. for 0, 60 and 90 minutes before termination of reactions and compound extraction with acetonitrile. Sample replicates were pooled prior to analysis.
Potential metabolites were identified using time-of-flight (TOF) and triple quadruple (TQ) mass spectrometers.

Chain of human ether a go-go (hERG) channel (Q12809 whole entry): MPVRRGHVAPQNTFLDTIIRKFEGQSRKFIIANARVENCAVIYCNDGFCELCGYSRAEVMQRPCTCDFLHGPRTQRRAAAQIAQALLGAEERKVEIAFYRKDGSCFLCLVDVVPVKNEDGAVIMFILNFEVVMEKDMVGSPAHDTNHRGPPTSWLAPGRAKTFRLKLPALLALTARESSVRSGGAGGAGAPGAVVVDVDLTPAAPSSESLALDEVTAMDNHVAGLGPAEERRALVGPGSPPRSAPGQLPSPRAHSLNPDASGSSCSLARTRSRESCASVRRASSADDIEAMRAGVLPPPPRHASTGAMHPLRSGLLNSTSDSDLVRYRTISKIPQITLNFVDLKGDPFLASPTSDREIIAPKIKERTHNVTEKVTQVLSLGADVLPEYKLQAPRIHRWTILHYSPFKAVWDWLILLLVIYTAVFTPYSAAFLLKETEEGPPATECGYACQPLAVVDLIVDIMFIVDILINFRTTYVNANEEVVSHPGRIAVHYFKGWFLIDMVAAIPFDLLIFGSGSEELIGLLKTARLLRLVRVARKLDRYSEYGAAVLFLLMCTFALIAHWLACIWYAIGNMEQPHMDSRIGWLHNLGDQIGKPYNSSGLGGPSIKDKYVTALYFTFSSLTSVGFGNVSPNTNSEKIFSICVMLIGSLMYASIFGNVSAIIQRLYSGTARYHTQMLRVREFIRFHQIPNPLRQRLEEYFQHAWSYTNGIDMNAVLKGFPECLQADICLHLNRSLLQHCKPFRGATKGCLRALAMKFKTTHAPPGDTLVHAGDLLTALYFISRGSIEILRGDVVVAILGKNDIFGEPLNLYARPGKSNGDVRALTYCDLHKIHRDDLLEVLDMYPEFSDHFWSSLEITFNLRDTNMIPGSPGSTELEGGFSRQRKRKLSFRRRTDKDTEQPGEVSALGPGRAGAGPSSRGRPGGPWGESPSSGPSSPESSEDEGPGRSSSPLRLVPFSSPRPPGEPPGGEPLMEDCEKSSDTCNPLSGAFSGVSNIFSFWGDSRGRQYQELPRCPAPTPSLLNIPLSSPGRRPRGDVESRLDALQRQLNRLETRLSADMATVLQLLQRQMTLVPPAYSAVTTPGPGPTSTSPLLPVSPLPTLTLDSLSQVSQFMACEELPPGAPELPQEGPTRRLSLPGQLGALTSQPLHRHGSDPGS
Chain of hERG (Q12809 whole entry): as above
Chain of Lck (P06239 whole entry): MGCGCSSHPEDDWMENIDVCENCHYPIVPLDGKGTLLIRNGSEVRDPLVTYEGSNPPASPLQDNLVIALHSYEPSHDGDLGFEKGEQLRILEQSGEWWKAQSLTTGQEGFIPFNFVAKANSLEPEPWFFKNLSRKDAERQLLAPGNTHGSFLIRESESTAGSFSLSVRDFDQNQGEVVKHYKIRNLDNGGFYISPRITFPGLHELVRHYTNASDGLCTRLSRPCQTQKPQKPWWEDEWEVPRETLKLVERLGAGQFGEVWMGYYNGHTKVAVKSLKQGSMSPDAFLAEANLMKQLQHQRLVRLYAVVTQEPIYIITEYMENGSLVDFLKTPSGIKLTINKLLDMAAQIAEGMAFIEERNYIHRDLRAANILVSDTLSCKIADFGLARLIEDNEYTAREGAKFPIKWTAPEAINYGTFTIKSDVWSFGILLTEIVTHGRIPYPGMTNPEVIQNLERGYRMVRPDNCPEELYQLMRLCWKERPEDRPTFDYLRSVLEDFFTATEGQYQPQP
Chain of B-Raf (P15056 whole entry): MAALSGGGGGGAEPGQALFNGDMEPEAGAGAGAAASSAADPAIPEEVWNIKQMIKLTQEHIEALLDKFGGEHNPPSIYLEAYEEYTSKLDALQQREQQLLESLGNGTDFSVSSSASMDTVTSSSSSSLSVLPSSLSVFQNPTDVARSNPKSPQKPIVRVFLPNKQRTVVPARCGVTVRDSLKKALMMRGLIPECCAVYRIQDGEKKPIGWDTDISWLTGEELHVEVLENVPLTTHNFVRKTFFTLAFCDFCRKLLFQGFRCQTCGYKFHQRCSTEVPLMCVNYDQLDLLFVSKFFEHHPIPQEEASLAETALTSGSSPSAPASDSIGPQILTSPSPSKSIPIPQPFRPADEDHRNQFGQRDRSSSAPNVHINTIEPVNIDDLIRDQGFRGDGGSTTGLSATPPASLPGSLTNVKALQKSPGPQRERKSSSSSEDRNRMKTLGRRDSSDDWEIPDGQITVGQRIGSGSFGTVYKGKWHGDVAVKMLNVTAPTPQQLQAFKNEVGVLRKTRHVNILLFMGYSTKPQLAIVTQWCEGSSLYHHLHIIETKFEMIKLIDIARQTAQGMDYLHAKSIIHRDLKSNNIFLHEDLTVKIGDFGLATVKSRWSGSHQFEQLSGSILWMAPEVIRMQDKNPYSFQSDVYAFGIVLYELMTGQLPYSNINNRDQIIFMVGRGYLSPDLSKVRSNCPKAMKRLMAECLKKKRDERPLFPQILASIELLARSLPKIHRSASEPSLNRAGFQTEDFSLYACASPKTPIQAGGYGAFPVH

In the case of `C#Cc1cc(Nc2nccc(Oc3ccc(NC(=O)Nc4cc(C(C)(C)C)cc(NS(C)(=O)=O)c4OC)c4ccccc34)n2)cc(C(=O)NCCOCCOCCOC)c1` [Compound I, 3-((4-((4-(3-(5-(tert-Butyl)-2-methoxy-3-(methylsulfonamido)phenyl)ureido)naphthalen-1-yl)oxy)pyrimidin-2-yl)amino)-5-ethynyl-N-(2-(2-(2-methoxyethoxy)ethoxy)ethyl)benzamide], the “IFNγ level in colon tissue” value ([1]; 3 mg/kg) is reported as 10.8 ± 3.3 pg/mL, the “IL-8 level in colon tissue” value ([1]; 3 mg/kg) is reported as 70.8 ± 22.8 pg/mL and the “Colon weight:length” value ([1]; 3 mg/kg BID oral) is reported as 0.024 ± 0.003. For the same compound, the “% Inhibition of induction window between naïve and vehicle animals” value ([1]; 3 mg/kg BID oral, colon weight:length) was 90%, the “Colon weight:length” value ([1]; additional study, 0.03 mg/kg) was 0.033 ± 0.002 and the “Colon weight:length” value ([1]; additional study, 0.3 mg/kg) was 0.041 ± 0.005. The “Colon weight:length” value ([1]; additional study, 3 mg/kg) was 0.034 ± 0.003, the Kd (Lck) was 4.1 nM and the Kd (Syk) was 21 nM. For the same compound, the “number of individual kinase hits, S(1)” value (non-mutant kinases; 50 nM, % Ctrl <1) was 0, the “KinomeScan Selectivity Score S(10)” value (non-mutant kinases; 50 nM, % Ctrl <10) was 0.023 and the “number of individual kinase hits, S(10)” value (non-mutant kinases; 50 nM, % Ctrl <10) was 9. The “KinomeScan Selectivity Score S(35)” value (non-mutant kinases; 50 nM, % Ctrl <35) was 0.068, the “number of individual kinase hits, S(35)” value (non-mutant kinases; 50 nM, % Ctrl <35) was 27 and the “KinomeScan Selectivity Score S(1)” value (non-mutant kinases; 500 nM, % Ctrl <1) was 0.038. The “number of individual kinase hits, S(1)” value (non-mutant kinases; 500 nM, % Ctrl <1) was 15, the “number of individual kinase hits, S(10)” value (non-mutant kinases; 500 nM, % Ctrl <10) was 51 and the “number of individual kinase hits, S(35)” value (non-mutant kinases; 500 nM, % Ctrl <35) was 78. For the same compound, the inhibition at 3 µM (hERG) was -12 ± 4%, the IC50 [2] was > 3 µM and the “% β-catenin induction” value (d-U937 cells; 1 μg/mL) was 21%. The “% β-catenin induction” value (d-U937 cells; 5 μg/mL) was 14%, the “% β-catenin induction” value (d-U937 cells; 10 μg/mL) was 26% and the “effect on binding of B-Raf to its standard ligand” value (B-Raf) was “did not have any significant effect”. The “number of metabolites formed in hepatocytes” value [3] was 9 and the “products connected to metabolism at the naphthalene moiety” value [3] was “no products were noted”.
